# Experimental data: patent publication US8952024B2, “Herbicidal pyrimidone derivatives” (E I du Pont de Nemours and Company, priority 2009, dated 2015)
# Assays:
# Type in all cases: in vivo
# [1] = system: velvetleaf (Abutilon theophrasti); assay: Test A pre-/postemergence plant response
# Summary of the method: (§1)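 Injury scores (0, no effect; 100, complete control) come from visual comparison with untreated controls roughly ten days post-treatment. Test chemicals in a surfactant-containing non-phytotoxic solvent were applied as a directed soil spray preemergence and to one- to two-leaf seedlings postemergence.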
# [2] = system: wheat (Triticum aestivum); assay: Test A pre-/postemergence plant response
# Summary of the method: as §1
# [3] = system: barnyardgrass (Echinochloa crus-galli); assay: Test A pre-/postemergence plant response
# Summary of the method: as §1
# [4] = system: large crabgrass (Digitaria sanguinalis); assay: Test A pre-/postemergence plant response
# Summary of the method: as §1
# [5] = system: corn (Zea mays); assay: Test A pre-/postemergence plant response
# Summary of the method: as §1
# [6] = system: pigweed (Amaranthus retroflexus); assay: Test A pre-/postemergence plant response
# Summary of the method: as §1
# [7] = system: morningglory (Ipomoea spp.); assay: Test A pre-/postemergence plant response
# Summary of the method: as §1
# [8] = system: giant foxtail (Setaria faberii); assay: Test A pre-/postemergence plant response
# Summary of the method: as §1
# [9] = system: canarygrass (Phalaris minor); assay: Test B postemergence plant response; details: Postemergence
# Summary of the method: (§2)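 Visual ratings from 0 (no effect) to 100 (complete control), made against controls 13–15 days after treatment, kept in a greenhouse. Compounds were applied postemergence to potted plants at the 1- to 4-leaf stage (2–18 cm).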
# [10] = system: windgrass (Apera spica-venti); assay: Test B postemergence plant response; details: Postemergence
# Summary of the method: as §2
# [11] = system: chickweed (Stellaria media); assay: Test B postemergence plant response; details: Postemergence
# Summary of the method: as §2
# [12] = system: ducksalad (Heteranthera limosa); assay: Test B flooded paddy test; details: for Plant response rating, Ducksalad: Flood (flooded paddy test), 13 to 15 days
# Summary of the method: (§3)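 2-leaf seedlings; pots flooded 3 cm over soil at treatment; cpd dosed into floodwater, depth kept constant. Greenhouse 13–15 d. Visual rating vs untreated controls, 0 = no effect, 100 = complete control.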
# [13] = system: rice (Oryza sativa); assay: Test B flooded paddy test; details: for Plant response rating, Rice: Flood (flooded paddy test), 13 to 15 days
# Summary of the method: as §3
# [14] = Postemergence, 125 g ai/ha, visual injury, 0 to 100 scale (0 no effect, 100 complete control), approx. ten days
# [15] = Postemergence, 500 g ai/ha, 0 to 100 scale, 0 = no effect, 100 = complete control, approx. ten days
# [16] = Preemergence, 125 g ai/ha, 0 to 100 scale, 0 = no effect, 100 = complete control
# [17] = Preemergence, 500 g ai/ha, visual injury, 0 to 100 scale (0 no effect, 100 complete control), approx. ten days
# [18] = 31 g ai/ha, scale 0 to 100 (0 no effect, 100 complete control)
# [19] = 62 g ai/ha, scale 0 (no effect) to 100 (complete control), 13 to 15 days
# [20] = 125 g ai/ha, visual rating after 13 to 15 days, scale 0 (no effect) to 100 (complete control)
# [21] = 250 g ai/ha, flooded paddy test, visual rating on 0 to 100 scale (0 no effect, 100 complete control) after 13 to 15 days
# [22] = 31 g ai/ha, scale of 0 to 100 where 0 is no effect and 100 is complete control
# [23] = 62 g ai/ha, scale 0 to 100, 0 is no effect, 100 is complete control
# [24] = 125 g ai/ha, scale 0 to 100, 0 is no effect, 100 is complete control
compound,measurement,setting,value
Cc1ccccc1-n1c(-c2ccccc2)ncc(C(=O)C2=C(O)CCCC2=O)c1=O [Compound 12],Velvetleaf plant response rating,[1]; [14],100
same,"Plant response rating, Velvetleaf",[1]; [15],100
same,"Plant response rating, Velvetleaf",[1]; [16],70
same,"Plant response rating, Velvetleaf",[1]; [17],90
same,Wheat plant response rating,[2]; [14],0
same,"Plant response rating, Wheat",[2]; [15],0
same,"Plant response rating, Wheat",[2]; [16],0
same,"Plant response rating, Wheat",[2]; [17],0
same,Barnyardgrass plant response rating,[3]; [14],90
same,"Plant response rating, Barnyardgrass",[3]; [15],90
same,"Plant response rating, Barnyardgrass",[3]; [16],10
same,"Plant response rating, Barnyardgrass",[3]; [17],70
same,"Crabgrass, Large plant response rating",[4]; [14],90
same,"Plant response rating, Crabgrass, Large",[4]; [15],100
same,"Plant response rating, Crabgrass, Large",[4]; [16],50
same,"Plant response rating, Crabgrass, Large",[4]; [17],90
same,Corn plant response rating,[5]; [14],40
same,"Plant response rating, Corn",[5]; [15],80
same,"Plant response rating, Corn",[5]; [16],0
same,"Plant response rating, Corn",[5]; [17],0
same,Pigweed plant response rating,[6]; [14],100
same,"Plant response rating, Pigweed",[6]; [15],100
same,"Plant response rating, Pigweed",[6]; [16],80
same,"Plant response rating, Pigweed",[6]; [17],100
same,Morningglory plant response rating,[7]; [14],100
same,"Plant response rating, Morningglory",[7]; [15],100
same,"Plant response rating, Morningglory",[7]; [16],30
same,"Plant response rating, Morningglory",[7]; [17],90
same,"Foxtail, Giant plant response rating",[8]; [14],90
same,"Plant response rating, Foxtail, Giant",[8]; [15],90
same,"Plant response rating, Foxtail, Giant",[8]; [16],20
same,"Plant response rating, Foxtail, Giant",[8]; [17],90
same,"Plant response rating, Canarygrass",[9]; [18],0
same,"Plant response rating, Canarygrass",[9]; [19],5
same,"Plant response rating, Canarygrass",[9]; [20],5
same,Canarygrass plant response rating,"[9]; 250 g ai/ha, scale 0 to 100",40
same,"Plant response rating, Windgrass",[10]; [18],10
same,"Plant response rating, Windgrass",[10]; [19],40
same,"Plant response rating, Windgrass",[10]; [20],45
same,Windgrass plant response rating,"[10]; 250 g ai/ha, scale 0 to 100",50
same,"Plant response rating, Chickweed",[11]; [18],100
same,"Plant response rating, Chickweed",[11]; [19],100
same,"Plant response rating, Chickweed",[11]; [20],100
same,Chickweed plant response rating,"[11]; 250 g ai/ha, scale 0 to 100",100
same,"Plant response rating, Flood, Ducksalad",[12]; [21],55
same,"Plant response rating, Ducksalad",[12]; [22],0
same,"Plant response rating, Ducksalad",[12]; [23],25
same,"Plant response rating, Ducksalad",[12]; [24],35
same,"Plant response rating, Flood, Rice",[13]; [21],0
same,"Plant response rating, Rice",[13]; [22],0
same,"Plant response rating, Rice",[13]; [23],0
same,"Plant response rating, Rice",[13]; [24],0
